Where two headings read alike, the source gives them in different places.
Molecular target: T1, GK (glucokinase, residues 12-465) (Homo sapiens, UniProt P35557)
T1 construct: I.D. No. 1 corresponds to residues 12-465 of glucokinase; made in house; host or cells: DH10b-T1r E. coli
T1 sequence (P35557 with tags, fused parts or gaps isoform P35557-2): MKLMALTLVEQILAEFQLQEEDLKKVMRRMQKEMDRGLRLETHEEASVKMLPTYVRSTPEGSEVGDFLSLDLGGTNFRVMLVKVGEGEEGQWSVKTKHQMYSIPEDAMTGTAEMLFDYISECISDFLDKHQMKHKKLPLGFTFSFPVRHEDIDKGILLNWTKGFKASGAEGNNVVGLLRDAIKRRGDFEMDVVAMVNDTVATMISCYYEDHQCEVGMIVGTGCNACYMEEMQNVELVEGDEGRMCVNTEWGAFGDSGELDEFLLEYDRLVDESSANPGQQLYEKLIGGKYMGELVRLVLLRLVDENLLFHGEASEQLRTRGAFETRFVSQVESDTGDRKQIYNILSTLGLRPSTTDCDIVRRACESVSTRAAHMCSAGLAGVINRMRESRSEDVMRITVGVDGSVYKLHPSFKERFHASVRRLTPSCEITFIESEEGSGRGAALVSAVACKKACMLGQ
Test: enzymatic glucokinase activity assay (ATP consumption, KinaseGlo luminescence)
Type: biochemical
Conditions: 5 μM ATP, 5 mM Glucose, reported as bins; for EC50: Kact = concentration that displays 50% of the maximal increase in GK activity, 60 min, room temperature, read-out: pKact
Text: The activity of compounds as glucokinase activators may be assayed in vitro, in vivo or in a cell line. Provided below is an enzymatic glucokinase activity assay.
Purified glucokinase may be obtained as follows. […] SEQ.
The expression of recombinant glucokinase protein may be carried out by transformation and growth of DH10b-T1r E. coli cells incorporating the (pFLAG-CTC) plasmid in LB media. Protein expression can be induced in this system by the addition of IPTG to the culture medium.
Recombinant protein may be isolated from cellular extracts by passage over Sepharose Q Fast Flow resin (Pharmacia). This partially purified GK extract may then be further purified by a second passage over Poros HQ10 (Applied Biosystems). The purity of GK may be determined on denaturing SDS-PAGE gel. Purified GK may then be concentrated to a final concentration of 20.0 mg/ml. After flash freezing in liquid nitrogen, the proteins can be stored at −78° C. in a buffer containing 25 mM TRIS-HCl pH 7.6, 50 mM NaCl, and 0.5 mM TCEP.
The activation properties of compounds for GK may be determined using a black 384-well-plate format under the following reaction conditions: 25 mM Hepes pH 7.2, 25 mM NaCl, 10 mM MgCl2, 0.01% Brij35, 1 mM DTT, 5 μM ATP, 5 mM Glucose 2% DMSO. The amount of ATP consumed may be determined quantitatively by addition of equal volume of luciferase reagent (luciferase+beetle luciferin—KinaseGlo Luminescent Kinase Assay kit from Promega). The luminescence intensity may be measured by using the Analyst HT from LJL Biosystems.
The reaction mixture may then be incubated at room temperature for 60 min, and quenched and developed by addition of 10 μL of luciferase reagent. Luminescence intensities of the resulting reaction mixtures may be measured after a 10 min incubation at room temperature. The luminescence intensity may be measured by using the Analyst HT from LJL Biosystems.
pKact and % ACTmax values may be calculated by non-linear curve fitting of the compound concentrations and luminescence intensities to a standard inhibition/activation equation.

[1] = calculated maximal gain in GK enzyme activity at a saturating concentration of the compound, read-out: % ACTmax
[2] = read-out: % ACTmax, calculated maximal gain in GK enzyme activity at a saturating concentration of the compound

SMILES | EC50 [µM] | Emax [1] [%] | Emax [2] [%]
O=C(Nc1ncc(Cl)s1)[C@H](CC1CCCC1)n1cc(S(=O)(=O)C2CC2)cn1 [Compound 39, (S)-N-(5-chlorothiazol-2-yl)-3-cyclopentyl-2-(4-(cyclopropylsulfonyl)-1H-pyrazol-1-yl)propanamide] | 1.58 to 3.16 | ≥ 111 | –
Nc1cc(S(=O)(=O)C2CC2)c2cnn([C@H](CC3CCOCC3)C(=O)Nc3ncc(F)s3)c2n1 [Compound 111, (R)-2-(6-amino-4-(cyclopropylsulfonyl)-1H-pyrazol[3,4-b]pyridin-1-yl)-N-(5-fluorothiazol-2-yl)-3-(tetrahydro-2H-pyran-4-yl)propanamide] | 0.398 to 1.26 | – | 106 to 110
O=C(Nc1ncc(F)s1)C(CC1CCOCC1)n1cc2c(S(=O)(=O)C3CC3)cncc2n1 (centres unmarked) [Compound 140, 2-(4-(cyclopropylsulfonyl)-2H-pyrazol[3,4-c]pyridin-2-yl)-N-(5-fluorothiazol-2-yl)-3-(tetrahydro-2H-pyran-4-yl)propanamide] | ≥ 15.8 | ≤ 90 | –
Cn1ccc(NC(=O)C(CC2CCOCC2)n2cc3c(S(=O)(=O)C4CC4)cc(Cl)cc3n2)n1 (centres unmarked) [Compound 167, 2-(6-chloro-4-(cyclopropylsulfonyl)-2H-indazol-2-yl)-N-(1-methyl-1H-pyrazol-3-yl)-3-(tetrahydro-2H-pyran-4-yl)propanamide] | 3.98 to 12.6 | ≤ 90 | –
COc1cc(S(=O)(=O)C2CC2)c2cnn(C(CC3CCOCC3)C(=O)Nc3cnccn3)c2c1 (centres unmarked) [Compound 92, 2-(4-(cyclopropylsulfonyl)-6-methoxy-1H-indazol-1-yl)-N-(pyrazin-2-yl)-3-(tetrahydro-2H-pyran-4-yl)propanamide] | 3.98 to 12.6 | ≤ 90 | –
O=C(Nc1ncc(F)s1)[C@@H](CC1CCOCC1)n1cc(S(=O)(=O)C2CCCC2)cn1 (single isomer, unassigned) [Compound 37, 2-(4-(cyclopentylsulfonyl)-1H-pyrazol-1-yl)-N-(5-fluorothiazol-2-yl)-3-(tetrahydro-2H-pyran-4-yl)propanamide] | 1.58 to 3.16 | ≥ 111 | –
O=C(Nc1ncc(F)s1)C(CC1CCCC1)n1cc(S(=O)(=O)C2CC2)cn1 (centres unmarked) [Compound 34, 3-cyclopentyl-2-(4-(cyclopropylsulfonyl)-1H-pyrazol-1-yl)-N-(5-fluorothiazol-2-yl)propanamide] | 1.58 to 3.16 | ≥ 111 | –
Nc1cc(S(=O)(=O)C2CC2)c2cnn([C@@H](CC3CCOCC3)C(=O)Nc3ncc(F)s3)c2n1 [Compound 112, (S)-2-(6-amino-4-(cyclopropylsulfonyl)-1H-pyrazol[3,4-b]pyridin-1-yl)-N-(5-fluorothiazol-2-yl)-3-(tetrahydro-2H-pyran-4-yl)propanamide] | ≤ 0.316 | – | 106 to 110
O=C(Nc1ncc(Cl)s1)C(CC1CCOCC1)n1ncc2c(S(=O)(=O)C3CC3)cc(F)cc21 (centres unmarked) [Compound 67, N-(5-chlorothiazol-2-yl)-2-(4-(cyclopropylsulfonyl)-6-fluoro-1H-indazol-1-yl)-3-(tetrahydro-2H-pyran-4-yl)propanamide] | ≤ 0.316 | 106 to 110 | –
Cc1cc(S(=O)(=O)C2CC2)c2cnn(C(CC3CCOCC3)C(=O)Nc3ncc(F)s3)c2c1 (centres unmarked) [Compound 122, 2-(4-(cyclopropylsulfonyl)-6-methyl-1H-indazol-1-yl)-N-(5-fluorothiazol-2-yl)-3-(tetrahydro-2H-pyran-4-yl)propanamide] | 3.98 to 12.6 | ≥ 111 | –
Cn1ccc(NC(=O)C(CC2CCOCC2)n2cc3c(S(=O)(=O)C4CC4)c(F)ccc3n2)n1 (centres unmarked) [Compound 153, 2-(4-(cyclopropylsulfonyl)-5-fluoro-2H-indazol-2-yl)-N-(1-methyl-1H-pyrazol-3-yl)-3-(tetrahydro-2H-pyran-4-yl)propanamide] | ≥ 15.8 | 106 to 110 | –
NC(=O)c1ccc(NC(=O)[C@H](CC2CCOCC2)n2ncc3c(S(=O)(=O)C4CC4)cccc32)nc1 [Compound 107, (S)-6-(2-(4-(cyclopropylsulfonyl)-1H-indazol-1-yl)-3-(tetrahydro-2H-pyran-4-yl)propanamido)nicotinamide] | ≤ 0.316 | – | ≥ 111
O=C(Nc1ncc(F)s1)[C@@H](CC1CCOCC1)n1ncc2c(S(=O)(=O)C3CC3)ccnc21 [Compound 139, (R)-2-(4-(cyclopropylsulfonyl)-1H-pyrazol[3,4-b]pyridin-1-yl)-N-(5-fluorothiazol-2-yl)-3-(tetrahydro-2H-pyran-4-yl)propanamide] | ≥ 15.8 | 106 to 110 | –
O=C(Nc1cnccn1)C(CC1CCOCC1)n1ncc2c(S(=O)(=O)C3CC3)cc(Cl)cc21 (centres unmarked) [Compound 102, 2-(6-chloro-4-(cyclopropylsulfonyl)-1H-indazol-1-yl)-N-(pyrazin-2-yl)-3-(tetrahydro-2H-pyran-4-yl)propanamide] | 0.398 to 1.26 | 90 to 100 | –
O=C(Nc1cnccn1)C(CC1CCOCC1)n1cc2c(S(=O)(=O)C3CC3)cc(Cl)cc2n1 (centres unmarked) [Compound 168, 2-(6-chloro-4-(cyclopropylsulfonyl)-2H-indazol-2-yl)-N-(pyrazin-2-yl)-3-(tetrahydro-2H-pyran-4-yl)propanamide] | ≥ 15.8 | ≤ 90 | –
O=C(Nc1ncc(Cl)s1)[C@H](CC1CCOCC1)n1ncc2cc(S(=O)(=O)C3CC3)ccc21 [Compound 48, (S)-N-(5-chlorothiazol-2-yl)-2-(5-(cyclopropylsulfonyl)-1H-indazol-1-yl)-3-(tetrahydro-2H-pyran-4-yl)propanamide] | 0.398 to 1.26 | ≥ 111 | –
COc1ccc2c(cnn2[C@@H](CC2CCOCC2)C(=O)Nc2ncc(F)s2)c1S(=O)(=O)C1CC1 [Compound 82, (S)-2-(4-(cyclopropylsulfonyl)-5-methoxy-1H-indazol-1-yl)-N-(5-fluorothiazol-2-yl)-3-(tetrahydro-2H-pyran-4-yl)propanamide] | ≤ 0.316 | 106 to 110 | –
Nc1cc(S(=O)(=O)C2CC2)c2cnn(C(CC3CCOCC3)C(=O)Nc3ncc(F)s3)c2n1 (centres unmarked) [Compound 16, 2-(6-amino-4-(cyclopropylsulfonyl)-1H-pyrazolo[3,4-b]pyridin-1-yl)-N-(5-fluorothiazol-2-yl)-3-(tetrahydro-2H-pyran-4-yl)propanamide] | ≤ 0.316 | – | 106 to 110
O=C(Nc1ncc(F)s1)[C@@H](CC1CCOCC1)n1ncc2c(S(=O)(=O)C3CC3)cc(O)cc21 [Compound 77, (R)-2-(4-(cyclopropylsulfonyl)-6-hydroxy-1H-indazol-1-yl)-N-(5-fluorothiazol-2-yl)-3-(tetrahydro-2H-pyran-4-yl)propanamide] | ≥ 15.8 | 101 to 105 | –
N#Cc1cnc(NC(=O)C(CC2CCOCC2)n2ncc3c(S(=O)(=O)C4CC4)cccc32)nc1 (centres unmarked) [Compound 126, N-(5-cyanopyrimidin-2-yl)-2-(4-(cyclopropylsulfonyl)-1H-indazol-1-yl)-3-(tetrahydro-2H-pyran-4-yl)propanamide] | ≥ 15.8 | ≤ 90 | –
COc1ccc2nc(NC(=O)[C@H](CC3CCOCC3)n3cc(S(=O)(=O)C4CC4)cn3)sc2n1 [Compound 26, (S)-2-(4-(cyclopropylsulfonyl)-1H-pyrazol-1-yl)-N-(5-methoxythiazolo[5,4-b]pyridin-2-yl)-3-(tetrahydro-2H-pyran-4-yl)propanamide] | ≥ 15.8 | ≤ 90 | –
O=C1CC[C@@H](C[C@@H](C(=O)Nc2ncc(F)s2)n2cc(S(=O)(=O)C3CC3)cn2)C1 [Compound 55, (S)-2-(4-(cyclopropylsulfonyl)-1H-pyrazol-1-yl)-N-(5-fluorothiazol-2-yl)-3-((S)-3-oxocyclopentyl)propanamide] | 3.98 to 12.6 | ≤ 90 | –
